Results on eight compounds are retold here after US10537103B2, “Antibacterial composition containing an isomer mixture of monosaccharide alkyl monoacetals or monoethers” (TEREOS STARCH & SWEETENERS BELGIUM, priority 2014, dated 2020).

A word on the MIC: it is the smallest concentration in the dilution series that meets the test's criterion for growth inhibition. Lower therefore signals a more susceptible organism. Usually melting point stands for the temperature of the solid-liquid transition.

For one data set, the system named is S. aureus (ATCC 292213). As to the kind of experiment: Minimum inhibitory concentration (MIC), 96-well microplate microdilution. The data set is classed as cell-based. As to conditions: Staphylococcus aureus, ATCC292213, 18 h at 37° C. As to the method:
(§1) The bacteriostatic properties of the derivatives are evaluated by measuring their minimum inhibitory concentration (MIC) on the bacteria tested. These measurements are made using the 96-well microplate microdilution method according to the conditions defined below.
(§2) The minimum inhibitory concentrations (MIC) are tested on Gram-positive bacterial strains according to the recommendations of the “Clinical Laboratory Standards Institute” (Clinical-Laboratory-Standards-Institute, 6th ed. Approved standard M100-S17. CLSI, Wayne, Pa., 2007).
(§3) The Gram-positive bacteria studied are as follows: L. monocytogenes (CIP 103575), E. faecalis (ATCC® 29212™) and S. aureus (ATCC® 292213™).
(§4) The cultures studied, freshly isolated (after incubation on a blood agar at 37° C. for 18 h), are taken up in sterile water (10 mL) until obtaining a 0.5 McFarland (Mc) suspension i.e. 1 to 2×10^8 CFU (bacteria)/cm^3. The bacterial suspension was then diluted to obtain a final concentration of 5×10^5 CFU/cm^3.
(§5) Each well contains an identical quantity of Mueller-Hinton medium (a rich medium for bacterial culture) and bacteria with final 5×10^5 CFU/cm^3.
(§6) The test compounds of interest are solubilized in 2.5% m of ethanol before being diluted to different concentrations two by two.
(§7) On the multiwell plate, a first series has been planned comprising the culture medium without the test compound of interest. It corresponds to the growth control (control well). These controls serve as reference for comparing bacterial growth with that of the subsequent wells comprising different concentrations of the test compound of interest. The second series of wells comprises the mother solution for the test compound of interest for a concentration in the wells of 4 mM. Each series of wells was diluted two by two until the last series for a final concentration of 0.003 mM. Each concentration is duplicated in the same plate. The plate is incubated for 18 h at 37° C. […] If there is antibacterial activity, the bacterial growth is inhibited, which means that no turbidity or bacterial residue is present.
(§8) Tests have been conducted on Gram-positive bacteria with methyl glucopyranoside derivatives. […] After sterilization the solutions are diluted in water. […] Because precipitates formed in the solutions, the effect of these methyl glucopyranoside C10 and C12 acetals was not able to be evaluated. The results obtained for antimicrobial tests on the 3 bacterial strains L. monocytogenes (CIP 103575), E. faecalis (ATCC® 29212) and S. aureus (ATCC® […]) are summarized in Table 1.
(§9) The sorbitan C5, C6, C8, C10 and C12 acetals and ethers were then tested under the same conditions as previously and on the same bacterial strains (see example 5).

The test system of the next data set is E. faecalis (ATCC 29212). The data set is described as above. It is filed as cell-based. As to conditions: 18 h at 37° C.; for MIC: Enterococcus faecalis, ATCC29212, 18 h. As to the method:
as §1, §2, §3, §4, §5, §6, §7, §8, §9

The subject of data set [1] is L. monocytogenes (CIP 103575). The data set is described as above. As to conditions: Listeria monocytogenes, CIP103575, 18 h at 37° C. The data set is classed as cell-based. As to the method: as §1, §2, §3, §4, §5, §6, §7, §8, §9
A short description of data set [2]: Water solubility of test solutions. The data set is classed as physicochemical. As to conditions: solutions diluted in water, 2.5% m ethanol; precipitates formed. As to the method:
as §8

Another data set concerns L. monocytogenes. The settings on record: cited from earlier work.
For the next data set, the system named is S. aureus. As to conditions: cited from earlier work.
The test system of data set [3] is Gram-positive bacteria (L. monocytogenes, E. faecalis, S. aureus). The data set can be described thus: MIC / antimicrobial activity stated for the Gram-positive strains studied together. It is filed as cell-based. As to conditions: concentrations less than or equal to 4 mM. As to the method: as §1, §2, §3, §4
Each well contains an identical quantity of Mueller-Hinton medium (a rich medium for bacterial culture) and bacteria with final 5×10^5 CFU/cm^3. […]
Tests have been conducted on Gram-positive bacteria with methyl glucopyranoside derivatives. […] Because precipitates formed in the solutions, the effect of these methyl glucopyranoside C10 and C12 acetals was not able to be evaluated. […]

Structures are written as SMILES. Values after ≈ are worked out from the molar mass of the structure shown.

In the case of `CCCCC1OCC2O[C@H](OC)C(O)C(O)[C@@H]2O1` (stereo partly drawn) [Compound 1a, Methyl 4,6-O-pentylidene α-D-glucopyranoside], the MIC (with S. aureus (ATCC 292213); with E. faecalis (ATCC 29212); in data set [1]) was over 4 mM each time.

Turning to `CCCCCC1OCC2O[C@H](OC)C(O)C(O)[C@@H]2O1` (stereo partly drawn) [Compound 1b, Methyl 4,6-O-Hexylidene α-D-glucopyranoside], the MIC (in the data set on S. aureus (ATCC 292213); in the data set with E. faecalis (ATCC 29212); in data set [1]) was over 4 mM throughout.

`CCCCCCCC1OCC2O[C@H](OC)C(O)C(O)[C@@H]2O1` (stereo partly drawn) [Compound 1c, Methyl 4,6-O-Octylidene α-D-glucopyranoside]: the figures for the MIC (with S. aureus (ATCC 292213); against E. faecalis (ATCC 29212); in data set [1]) were 4 mM (≈ 1220 µg/mL), 2 mM (≈ 609 µg/mL) and 2 mM (≈ 609 µg/mL), respectively. In the data set on E. faecalis (ATCC 29212) (listed as AcC8 MeGlu), the “Minimum inhibitory concentration (MIC) E. faecalis” value is 4 mM (≈ 1220 µg/mL).

In turn, `CCCCCCCCCC1OCC2O[C@H](OC)C(O)C(O)[C@@H]2O1` (stereo partly drawn) [Compound 1d, Methyl 4,6-O-Decylidene α-D-glucopyranoside] came in with a melting point of 72 °C. Moreover, in data set [2], the water solubility entry is on record as “low water solubility”.

Regarding `CCCCCCCCCCCC1OCC2O[C@H](OC)C(O)C(O)[C@@H]2O1` (stereo partly drawn) [Compound 1g, Methyl 4,6-O-Dodecylidene α-D-mannopyranoside], the melting point was found to be 104 °C.

Turning to `CCCCCCCCCCCC1OCC2O[C@H](OC)C(O)C(O)[C@H]2O1` (stereo partly drawn) [Compound 1h, Methyl 4,6-O-Dodecylidene α-D-galactopyranoside], the melting point came to 115 °C.

Take `CCCCCCCCCCCC(=O)OCC(O)CO` (centres unmarked) [ML, monolaurine]: the “Minimum inhibitory concentration (MIC) L. monocytogenes, compounds known in the prior art” value in the data set with L. monocytogenes is 0.04 mM (≈ 11 µg/mL). In the data set with S. aureus, the “Minimum inhibitory concentration (MIC) S. aureus, compounds known in the prior art” value was 0.04 mM (≈ 11 µg/mL).

Take `CCCCCCCCCCCC=O` [dodecanal]: the “antimicrobial activity on the different bacterial strains” value in data set [3] is given as “no antimicrobial activity”.
